{"source": "patent US12459974B2", "about": "“Bicyclic peptide ligands specific for Nectin-4” (priority 2018, dated 2025)", "key": {"[1]": {"tested_on": "A549 xenograft", "assay": "Example 9.1: in vivo efficacy in A549 xenograft in Balb/c nude mice", "parameters": "species or system Mus Musculus", "conditions": "for Tumor volume trace over time: iv; for T/C: treated group average tumor volume / control group; for Tumor volume: Mean ± SEM"}, "[2]": {"tested_on": "HCT116 xenograft", "assay": "Example 9.2: in vivo efficacy in HCT116 xenograft in Balb/c nude mice", "parameters": "species or system Mus Musculus", "conditions": "for TGI / Tumor volume (TV) / Tumor volume / T/C: day 14; for Tumor volume trace over time / Tumor volume: mean ± SEM; for T/C: treated/control group average tumor volume"}, "[3]": {"conditions": "3 mpk, biw, day 14 after the start of treatment"}, "[4]": {"conditions": "3 mpk, qw, day 14 after the start of treatment"}, "[5]": {"conditions": "5 mpk, qw, day 14 after the start of treatment"}}, "note": "*1 amine or outer side, *2 acyl side, *3 side chain or, on linkers, in order; H or OH if unused. Where a SMILES comes first, the peptide text is derived from it. Bridges are numbered along the chain shown (N, C = ends). Roman numbers before positions name the chains, in order. [ ]: non-standard residue; d: D form. The star is where a group is joined. ξ: configuration not given here. TATA = O=C(CC[*:1])N1CN(C(=O)CC[*:2])CN(C(=O)CC[*:3])C1; Dolaproine = CO[C@@H]([C@@H]1CCCN1)[C@@H](C)C(=O)O; X1 = CC[C@H](C)C(C(CC(=O)[*:2])OC)N(C)[*:1]; 1Nal = N[C@@H](Cc1cccc2ccccc12)C(=O)O; X3 = O=C(CCCC(=O)[*:2])NCCC(=O)[*:1]; PABC = O=C(OCc1ccc(N[*:1])cc1)[*:2]; Hyp = O=C(O)[C@@H]1C[C@@H](O)CN1; hArg = N=C(N)NCCCC[C@H](N)C(=O)O; Cit = NC(=O)NCCC[C@H](N)C(=O)O; X2 = CC(N*)[C@@H](O)c1ccccc1; ξNMeV = CNC(C(=O)O)C(C)C; ξV = CC(C)C(N)C(=O)O; Sar = CNCC(=O)O", "data": [{"smiles": "CC[C@H](C)C(C(CC(=O)N1CCC[C@H]1[C@H](OC)[C@@H](C)C(=O)NC(C)[C@@H](O)c1ccccc1)OC)N(C)C(=O)[C@@H](NC(=O)C(C(C)C)N(C)C(=O)OCc1ccc(NC(=O)[C@H](CCCNC(N)=O)NC(=O)C(NC(=O)CCCC(=O)NCCC(=O)N(C)CC(=O)N(C)CC(=O)N(C)CC(=O)N(C)CC(=O)N(C)CC(=O)N(C)CC(=O)N(C)CC(=O)N(C)CC(=O)N(C)CC(=O)N(C)CC(=O)N[C@H]2CSCCC(=O)N3CN4CN(C3)C(=O)CCSC[C@H](NC(=O)[C@@H](CC(=O)O)NC(=O)[C@H](Cc3cccc5ccccc35)NC(=O)[C@@H]3CCCN3C2=O)C(=O)N[C@@H](CCSC)C(=O)N[C@@H](CCCCNC(=N)N)C(=O)N[C@@H](CC(=O)O)C(=O)N[C@@H](Cc2c[nH]c3ccccc23)C(=O)N[C@@H](CO)C(=O)N[C@@H]([C@@H](C)O)C(=O)N2CCC[C@H]2C(=O)N2C[C@H](O)C[C@H]2C(=O)N[C@@H](Cc2c[nH]c3ccccc23)C(=O)N[C@H](C(N)=O)CSCCC4=O)C(C)C)cc1)C(C)C", "note": "(stereo partly drawn) [BCY8245, MMAE-PABC-Cit-Val-Glutaryl-BCY8234] (I: [Sar][Sar][Sar][Sar][Sar][Sar][Sar][Sar][Sar][Sar]CP[1Nal][dD]CM[hArg]DWSTP[Hyp]WC-NH2 / II: [ξV][Cit][PABC][ξNMeV]V[X1][Dolaproine]-X2; linker I:11-I:15-I:25 via TATA; linker I:N-II:N via X3)", "values": [{"measurement": "TGI", "setting": "[1]; 3 mg/kg biw, day 14", "result": 90.8, "unit": "%"}, {"measurement": "Tumor volume (TV)", "setting": "[1]; 3 mg/kg biw, day 14", "result": 194, "unit": "mm^3"}, {"measurement": "TGI", "setting": "[1]; 3 mg/kg qw, day 14", "result": 51.4, "unit": "%"}, {"measurement": "Tumor volume (TV)", "setting": "[1]; 3 mg/kg qw, day 14", "result": 356, "unit": "mm^3"}, {"measurement": "TGI", "setting": "[1]; 5 mg/kg qw, day 14", "result": 82.6, "unit": "%"}, {"measurement": "Tumor volume (TV)", "setting": "[1]; 5 mg/kg qw, day 14", "result": 228, "unit": "mm^3"}, {"measurement": "Tumor volume trace over time", "setting": "[1]; 3 mpk, biw, day 0 after the start of treatment", "result": "157 ± 14"}, {"measurement": "Tumor volume trace over time", "setting": "[1]; 3 mpk, biw, day 2 after the start of treatment", "result": "183 ± 27"}, {"measurement": "Tumor volume trace over time", "setting": "[1]; 3 mpk, biw, day 5 after the start of treatment", "result": "158 ± 16"}, {"measurement": "Tumor volume trace over time", "setting": "[1]; 3 mpk, biw, day 7 after the start of treatment", "result": "184 ± 6"}, {"measurement": "Tumor volume trace over time", "setting": "[1]; 3 mpk, biw, day 9 after the start of treatment", "result": "182 ± 8"}, {"measurement": "Tumor volume trace over time", "setting": "[1]; 3 mpk, biw, day 12 after the start of treatment", "result": "190 ± 15"}, {"measurement": "Tumor volume trace over time", "setting": "[1]; [3]", "result": "194 ± 27"}, {"measurement": "T/C", "setting": "[1]; 3 mpk, biw, day 14", "result": 34.2, "unit": "%"}, {"measurement": "TGI", "setting": "[1]; [3]", "result": 90.8, "unit": "%"}, {"measurement": "Tumor volume", "setting": "[1]; [3]", "result": "194 ± 27", "unit": "mm^3"}, {"measurement": "Tumor volume trace over time", "setting": "[1]; 3 mpk, qw, day 0 after the start of treatment, mean ± SEM", "result": "157 ± 10"}, {"measurement": "Tumor volume trace over time", "setting": "[1]; 3 mpk, qw, day 2 after the start of treatment", "result": "208 ± 15"}, {"measurement": "Tumor volume trace over time", "setting": "[1]; 3 mpk, qw, day 5 after the start of treatment", "result": "197 ± 25"}, {"measurement": "Tumor volume trace over time", "setting": "[1]; 3 mpk, qw, day 7 after the start of treatment", "result": "257 ± 40"}, {"measurement": "Tumor volume trace over time", "setting": "[1]; 3 mpk, qw, day 9 after the start of treatment", "result": "293 ± 41"}, {"measurement": "Tumor volume trace over time", "setting": "[1]; 3 mpk, qw, day 12 after the start of treatment", "result": "341 ± 54"}, {"measurement": "Tumor volume trace over time", "setting": "[1]; [4]", "result": "356 ± 53"}, {"measurement": "T/C", "setting": "[1]; 3 mpk, qw, day 14", "result": 62.8, "unit": "%"}, {"measurement": "TGI", "setting": "[1]; [4]", "result": 51.4, "unit": "%"}, {"measurement": "Tumor volume", "setting": "[1]; [4]", "result": "356 ± 53", "unit": "mm^3"}, {"measurement": "Tumor volume trace over time", "setting": "[1]; 5 mpk, qw, day 0 after the start of treatment", "result": "157 ± 14"}, {"measurement": "Tumor volume trace over time", "setting": "[1]; 5 mpk, qw, day 2 after the start of treatment", "result": "179 ± 22"}, {"measurement": "Tumor volume trace over time", "setting": "[1]; 5 mpk, qw, day 5 after the start of treatment", "result": "147 ± 10"}, {"measurement": "Tumor volume trace over time", "setting": "[1]; 5 mpk, qw, day 7 after the start of treatment", "result": "172 ± 23"}, {"measurement": "Tumor volume trace over time", "setting": "[1]; 5 mpk, qw, day 9 after the start of treatment", "result": "173 ± 24"}, {"measurement": "Tumor volume trace over time", "setting": "[1]; 5 mpk, qw, day 12 after the start of treatment", "result": "204 ± 36"}, {"measurement": "Tumor volume trace over time", "setting": "[1]; [5]", "result": "228 ± 33"}, {"measurement": "T/C", "setting": "[1]; 5 mpk, qw, day 14", "result": 40.2, "unit": "%"}, {"measurement": "TGI", "setting": "[1]; [5]", "result": 82.6, "unit": "%"}, {"measurement": "Tumor volume", "setting": "[1]; [5]", "result": "228 ± 33", "unit": "mm^3"}, {"measurement": "bodyweight (in words)", "setting": "[1]; all dose groups", "result": "maintained the bodyweight well"}, {"measurement": "tumor response (in words)", "setting": "[1]; mouse, in vivo", "result": "tumor growth is restrained by BCY8245 but the tumor does not undergo regression"}, {"measurement": "TGI", "setting": "[2]; 3 mg/kg biw", "result": 94.9, "unit": "%"}, {"measurement": "Tumor volume (TV)", "setting": "[2]; 3 mg/kg biw", "result": 197, "unit": "mm^3"}, {"measurement": "TGI", "setting": "[2]; 3 mg/kg qw", "result": 57.1, "unit": "%"}, {"measurement": "Tumor volume (TV)", "setting": "[2]; 3 mg/kg qw", "result": 425, "unit": "mm^3"}, {"measurement": "TGI", "setting": "[2]; 5 mg/kg qw", "result": 105.2, "unit": "%"}, {"measurement": "Tumor volume (TV)", "setting": "[2]; 5 mg/kg qw", "result": 134, "unit": "mm^3"}, {"measurement": "Tumor volume trace over time", "setting": "[2]; 3 mpk, biw, iv, day 0 after the start of treatment", "result": "166 ± 18", "unit": "mm^3"}, {"measurement": "Tumor volume trace over time", "setting": "[2]; 3 mpk, biw, iv, day 2 after the start of treatment", "result": "229 ± 40", "unit": "mm^3"}, {"measurement": "Tumor volume trace over time", "setting": "[2]; 3 mpk, biw, iv, day 4 after the start of treatment", "result": "215 ± 42", "unit": "mm^3"}, {"measurement": "Tumor volume trace over time", "setting": "[2]; 3 mpk, biw, iv, day 7 after the start of treatment", "result": "213 ± 49", "unit": "mm^3"}, {"measurement": "Tumor volume trace over time", "setting": "[2]; 3 mpk, biw, iv, day 9 after the start of treatment", "result": "213 ± 48", "unit": "mm^3"}, {"measurement": "Tumor volume trace over time", "setting": "[2]; 3 mpk, biw, iv, day 12 after the start of treatment", "result": "206 ± 55", "unit": "mm^3"}, {"measurement": "TGI", "setting": "[2]; 3 mpk, biw, iv", "result": 94.9, "unit": "%"}, {"measurement": "Tumor volume", "setting": "[2]; 3 mpk, biw, iv", "result": "197 ± 50", "unit": "mm^3"}, {"measurement": "T/C", "setting": "[2]; 3 mpk, biw, iv", "result": 25.6, "unit": "%"}, {"measurement": "Tumor volume trace over time", "setting": "[2]; 3 mpk, biw, iv, day 14 after the start of treatment", "result": "197 ± 50", "unit": "mm^3"}, {"measurement": "Tumor volume trace over time", "setting": "[2]; 3 mpk, qw, iv, day 0 after the start of treatment", "result": "167 ± 11", "unit": "mm^3"}, {"measurement": "Tumor volume trace over time", "setting": "[2]; 3 mpk, qw, iv, day 2 after the start of treatment", "result": "209 ± 13", "unit": "mm^3"}, {"measurement": "Tumor volume trace over time", "setting": "[2]; 3 mpk, qw, iv, day 4 after the start of treatment", "result": "227 ± 17", "unit": "mm^3"}, {"measurement": "Tumor volume trace over time", "setting": "[2]; 3 mpk, qw, iv, day 7 after the start of treatment", "result": "269 ± 33", "unit": "mm^3"}, {"measurement": "Tumor volume trace over time", "setting": "[2]; 3 mpk, qw, iv, day 9 after the start of treatment", "result": "324 ± 39", "unit": "mm^3"}, {"measurement": "Tumor volume trace over time", "setting": "[2]; 3 mpk, qw, iv, day 12 after the start of treatment", "result": "348 ± 27", "unit": "mm^3"}, {"measurement": "TGI", "setting": "[2]; 3 mpk, qw, iv", "result": 57.1, "unit": "%"}, {"measurement": "Tumor volume", "setting": "[2]; 3 mpk, qw, iv", "result": "425 ± 28", "unit": "mm^3"}, {"measurement": "T/C", "setting": "[2]; 3 mpk, qw, iv", "result": 55.2, "unit": "%"}, {"measurement": "Tumor volume trace over time", "setting": "[2]; 3 mpk, qw, iv, day 14 after the start of treatment", "result": "425 ± 28", "unit": "mm^3"}]}]}
